Test results as given in patent publication US10065941B2, “Aminotriazine derivative and pharmaceutical composition comprising the same” (Shionogi & Co., Ltd., priority 2013, dated 2018).

Target: human P2X3 receptor (Homo sapiens (Human), UniProt P56373)
Experiment: Evaluation of human P2X3 receptor inhibitory activity (Test Example 1)
Format: cell-based
Details: C6BU-1 cell transfected with human P2X3 receptor gene, FLIPR 384
Outline: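 FLIPR calcium read-out: signal taken as peak fluorescence after ATP addition divided by starting fluorescence, and IC50 calculated from it. Compound added 5 min before 150 nM ATP solution (pre-dispense stock) to Fluo-3-AM-loaded C6BU-1 cells stably transfected with human P2X3; HEPES buffer pH 7.5 with probenecid.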

human P2X3 receptor, sequence (P56373 whole entry): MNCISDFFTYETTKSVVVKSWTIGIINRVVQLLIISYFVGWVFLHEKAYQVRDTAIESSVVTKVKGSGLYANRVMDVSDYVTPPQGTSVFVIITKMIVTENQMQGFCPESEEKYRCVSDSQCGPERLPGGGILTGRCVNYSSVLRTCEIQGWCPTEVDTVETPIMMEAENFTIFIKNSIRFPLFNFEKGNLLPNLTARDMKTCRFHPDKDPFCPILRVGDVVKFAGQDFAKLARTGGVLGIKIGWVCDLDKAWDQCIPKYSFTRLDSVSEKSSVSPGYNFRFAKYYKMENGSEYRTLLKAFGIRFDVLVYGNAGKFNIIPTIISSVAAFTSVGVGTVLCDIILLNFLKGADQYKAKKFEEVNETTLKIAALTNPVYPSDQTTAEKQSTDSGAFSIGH

Row | SMILES | IC50
1 | COC(=O)[C@@H](C)Cn1c(=O)[nH]/c(=N\c2ccc(Oc3ncccn3)cc2)n(Cc2ccc(Cl)cc2)c1=O [Compound R-059] | 5 nM
2 | CC(C)(Cn1c(=O)[nH]/c(=N\c2ccc(Oc3ncccn3)cc2)n(Cc2ccc(Cl)cc2)c1=O)C(=O)O [Compound R-060] | 16 nM
3 | COc1nccc(Oc2ccc(/N=c3\[nH]c(=O)n(C[C@H](C)C(=O)O)c(=O)n3Cc3ccc(Cl)cc3)cc2)n1 [Compound R-061] | 7 nM
4 | CCOC(=O)[C@H]1C[C@@H](Oc2ccc(/N=c3\[nH]c(=O)n(CC)c(=O)n3Cc3ccc(Cl)cc3)cc2)C1 [Compound R-062] | 318 nM
5 | CCn1c(=O)[nH]/c(=N\c2ccc(O[C@H]3C[C@@H](C(=O)O)C3)cc2)n(Cc2ccc(Cl)cc2)c1=O [Compound R-063] | 456 nM
6 | CCn1c(=O)[nH]/c(=N\c2ccc(Oc3ccc(C(=O)OC)c(Cl)n3)cc2)n(Cc2ccc(Cl)cc2)c1=O [Compound R-064] | 12 nM
7 | CCn1c(=O)[nH]/c(=N\c2ccc(Oc3ccc(C(=O)O)c(Cl)n3)cc2)n(Cc2ccc(Cl)cc2)c1=O [Compound R-066] | 58 nM
8 | CCc1[nH]c2ccc(/N=c3\[nH]c(=O)n(C[C@H](C)C(=O)OC)c(=O)n3Cc3ccc(Cl)cc3)cc2c1C [Compound R-068] | 40 nM
9 | CCc1[nH]c2ccc(/N=c3\[nH]c(=O)n(CC(C)(C)C(=O)OC)c(=O)n3Cc3ccc(Cl)cc3)cc2c1C [Compound R-069] | 51 nM
10 | CC(C)(Cn1c(=O)[nH]/c(=N\c2ccc(Oc3cc(F)nc(F)c3)cc2)n(Cc2ccc(Cl)cc2)c1=O)C(=O)O [Compound R-070] | 7 nM
11 | COc1cc(Oc2ccc(/N=c3\[nH]c(=O)n(CC(C)(C)C(=O)O)c(=O)n3Cc3ccc(Cl)cc3)cc2)cc(F)n1 [Compound R-071] | 6 nM
12 | COC(=O)[C@@H](C)Cn1c(=O)[nH]/c(=N\c2ccc(OC3CCC3)c(F)c2)n(Cc2ccc(Cl)cc2)c1=O [Compound R-072] | 16 nM
13 | COC(=O)C(C)(C)Cn1c(=O)[nH]/c(=N\c2ccc(OC3CCC3)c(F)c2)n(Cc2ccc(Cl)cc2)c1=O [Compound R-073] | 31 nM
14 | CCc1[nH]c2ccc(/N=c3\[nH]c(=O)n(C[C@H](C)C(=O)O)c(=O)n3Cc3ccc(Cl)cc3)cc2c1C [Compound R-074] | 13 nM
15 | CCc1[nH]c2ccc(/N=c3\[nH]c(=O)n(CC(C)(C)C(=O)O)c(=O)n3Cc3ccc(Cl)cc3)cc2c1C [Compound R-075] | 13 nM
16 | C[C@@H](Cn1c(=O)[nH]/c(=N\c2ccc(OC3CCC3)c(F)c2)n(Cc2ccc(Cl)cc2)c1=O)C(=O)O [Compound R-076] | 13 nM
17 | CC(C)(Cn1c(=O)[nH]/c(=N\c2ccc(OC3CCC3)c(F)c2)n(Cc2ccc(Cl)cc2)c1=O)C(=O)O [Compound R-077] | 24 nM
18 | C[C@@H](Cn1c(=O)[nH]/c(=N\c2ccc(Oc3ncccn3)cc2)n(Cc2ccc(Cl)cc2)c1=O)C(=O)O [Compound R-078] | 10 nM
19 | COC(=O)[C@@H](C)Cn1c(=O)[nH]/c(=N\c2ccc(Oc3cncc(Cl)c3)cc2)n(Cc2ccc(Cl)cc2)c1=O [Compound R-079] | 11 nM
20 | COC(=O)C(C)(C)Cn1c(=O)[nH]/c(=N\c2ccc(Oc3cncc(Cl)c3)cc2)n(Cc2ccc(Cl)cc2)c1=O [Compound R-080] | 13 nM
21 | C[C@@H](Cn1c(=O)[nH]/c(=N\c2ccc(Oc3cncc(Cl)c3)cc2)n(Cc2ccc(Cl)cc2)c1=O)C(=O)O [Compound R-081] | 5 nM
22 | CC(C)(Cn1c(=O)[nH]/c(=N\c2ccc(Oc3cncc(Cl)c3)cc2)n(Cc2ccc(Cl)cc2)c1=O)C(=O)O [Compound R-082] | 7 nM
23 | O=c1[nH]/c(=N\c2ccc(Oc3ncccc3F)cc2)n(Cc2ccc(Cl)cc2)c(=O)n1CC1(CO)COC1 [Compound R-083] | 7 nM
24 | O=c1[nH]/c(=N\c2ccc(Oc3ccc(F)cn3)cc2)n(Cc2ccc(Cl)cc2)c(=O)n1CC1(CO)COC1 [Compound R-084] | 6 nM
25 | COc1ccc(Oc2ccc(/N=c3\[nH]c(=O)n(C[C@H](C)C(=O)O)c(=O)n3Cc3ccc(Cl)cc3)cc2)nn1 [Compound R-085] | 6 nM
26 | COC(=O)[C@@H](C)Cn1c(=O)[nH]/c(=N\c2ccc(Oc3ccnc(Cl)c3)cc2)n(Cc2ccc(Cl)cc2)c1=O [Compound R-086] | 7 nM
27 | COC(=O)C(C)(C)Cn1c(=O)[nH]/c(=N\c2ccc(Oc3ccnc(Cl)c3)cc2)n(Cc2ccc(Cl)cc2)c1=O [Compound R-087] | 12 nM
28 | C[C@@H](Cn1c(=O)[nH]/c(=N\c2ccc(Oc3ccnc(Cl)c3)cc2)n(Cc2ccc(Cl)cc2)c1=O)C(=O)O [Compound R-088] | 6 nM
29 | CC(C)(Cn1c(=O)[nH]/c(=N\c2ccc(Oc3ccnc(Cl)c3)cc2)n(Cc2ccc(Cl)cc2)c1=O)C(=O)O [Compound R-089] | 7 nM
30 | COC(=O)[C@@H](C)Cn1c(=O)[nH]/c(=N\c2ccc(O[C@H](C)C(F)(F)F)c(F)c2)n(Cc2ccc(Cl)cc2)c1=O [Compound R-090] | 70 nM
